Measurements published in patent publication US8916206B2, “Nanoparticles containing water-soluble non-peptide low-molecular weight drug” (LTT Bio-Pharma Co., Ltd., priority 2005, dated 2014).

How the values were obtained:
adjuvant arthritis rats [1] = assay: Suppression of adjuvant arthritis, Example 5 (left hind leg volume, water displacement); assay type: in vivo, Lewis rats; details: average of 4 rats
Description: (§1) Fifty microliters of an incomplete Freund's adjuvant solution (DIFCO) containing 6 mg/mL of M. Butyricum Dessicated (DIFCO) was subcutaneously injected into the left hind paw of 7-week-old Lewis rats, weighing 130 to 160 g, under anesthesia with ether. The animals were divided into groups so that there is no significant difference in the volume of the left hind leg between the groups. 14 days after administration of M. Butyricum, one group was intravenously administered a single dose of the nanoparticles of the present invention encapsulating betamethasone phosphate (equivalent to 50 μg betamethasone). As controls, other groups were intravenously administered the same amount of an aqueous betamethasone phosphate solution or the PLA nanoparticles encapsulating betamethasone phosphate (nanoparticles described in Example 2 of International Patent Publication No. WO 2004/84871), each administered in a single dose.
(§2) The ability of the nanoparticles to suppress arthritic inflammation was analyzed by the water displacement technique by measuring the volume of the left hind legs before and after the administration of the nanoparticles.
(§3) Inflammation rate shown in Table 6 was determined with respect to the leg volume of the control group (=100) and calculated by the following equation: Inflammation rate(%)=(measured leg volume−leg volume without adjuvant)/(initial leg volume−leg volume without adjuvant)×100
Each inflammation rate is the average of 4 rats.

adjuvant arthritis rats [2] = assay: Suppression of adjuvant arthritis, Example 9 (left hind leg volume, water displacement); assay type: in vivo, Lewis rats; details: average of 7 rats
Description: as §1, §2, §3
As in Example 5, the ability of nanoparticles to suppress adjuvant arthritis was evaluated. Each inflammation rate is the average of 7 rats. Nanoparticles of the present invention containing betamethasone phosphate equivalent to 40 μg betamethasone were intravenously administered in a single dose.
As a control, another group of rats was intravenously administered the same amount of an aqueous solution of betamethasone phosphate in a single dose.

With `C[C@H]1C[C@H]2[C@@H]3CCC4=CC(=O)C=C[C@]4(C)[C@@]3(F)[C@@H](O)C[C@]2(C)[C@@]1(O)C(=O)COP(=O)(O)O` [betamethasone phosphate] the Inflammation rate (adjuvant arthritis rats [1]; 1 day after single i.v. dose equivalent to 50 μg betamethasone) was 83%, the Inflammation rate (adjuvant arthritis rats [1]; 2 days after single i.v. dose equivalent to 50 μg betamethasone) was 80% and the Inflammation rate (adjuvant arthritis rats [1]; 3 days after single i.v. dose equivalent to 50 μg betamethasone) was 82%. It also gave an Inflammation rate (adjuvant arthritis rats [1]; 4 days after single i.v. dose equivalent to 50 μg betamethasone) of 83%, an Inflammation rate (adjuvant arthritis rats [1]; 6 days after single i.v. dose equivalent to 50 μg betamethasone) of 84% and an Inflammation rate (adjuvant arthritis rats [1]; 8 days after single i.v. dose equivalent to 50 μg betamethasone) of 81%. For the same molecule, the Inflammation rate (adjuvant arthritis rats [2]; 1 day after single i.v. dose equivalent to 40 μg betamethasone) was 81%, the Inflammation rate (adjuvant arthritis rats [2]; 2 days after single i.v. dose equivalent to 40 μg betamethasone) was 83% and the Inflammation rate (adjuvant arthritis rats [2]; 3 days after single i.v. dose equivalent to 40 μg betamethasone) was 83%. The Inflammation rate (adjuvant arthritis rats [2]; 4 days after single i.v. dose equivalent to 40 μg betamethasone) was 78%, the Inflammation rate (adjuvant arthritis rats [2]; 5 days after single i.v. dose equivalent to 40 μg betamethasone) was 78% and the Inflammation rate (adjuvant arthritis rats [2]; 7 days after single i.v. dose equivalent to 40 μg betamethasone) was 79%. It also gave an Inflammation rate (adjuvant arthritis rats [2]; 9 days after single i.v. dose equivalent to 40 μg betamethasone) of 79%.
